In patent publication US5085995A, “Method for producing saffron stigma-like tissue and method for producing useful components from saffron stigma-like tissue” (Somar Corporation, priority 1989, dated 1992):

Key:
stigma of saffran = assay: Tissue culture of saffron stigma with alanine; visual rating of stigma-like tissue (Example 7); assay type: cell-based; details: Ki 2 ppm, Linsmaier-Skoog medium, scale 0-10
Text: (§1) The relative amount of the stigma-like tissue was visually determined and rated according to an 11-part divided scale, taking an amount corresponding to the amount of naturally-occurring three stigmata containing saffron pigment as 10, nil as 0, and equally dividing the interval therebetween.
(§2) The relative color density of the stigma-like tissue was visually determined, and rated according to an 11-part divided scale, taking a density corresponding to the density of a naturally-occurring stigma containing saffron pigment as 10 and colorlessness as 0, and equally dividing the interval therebetween.
(§3) Guaran powder was then added to the medium in a concentration of 0.2% by weight. The medium was sterilized at 120° C. for 20 minutes in an autoclave. The sterilized medium was aloquated into sterile plastic plates having a diameter of 55 mm, followed by cooling to solidify.
(§4) A bud of a saffron flower before opening was harvested, sterilized by soaking in a 0.5 vol% sodium hypochlorite aqueous solution for 10 minutes, and washed with water. The ovary portion of the bud was taken out and cut to pieces of about 8 mm. Each cut piece was seeded on each of the above-prepared solid media.
(§5) After 7 weeks of culturing, the tissue cultures were visually observed and evaluated in the same manner as in Example 1.
(§6) A saffron ovary was cultured in the same manner as in Example 3, except for replacing the MS medium with a Linsmaier-Skoog medium to which Ki, NAA and alanine were added in the concentrations shown in Table 11.
The procedure of Example 4 was repeated except for replacing the ovary with a stigma of saffran.

[1] = test system: undifferentiated callus of saffron bulb; details: undifferentiated callus culture of saffron bulb; symposium 1987; cited from earlier work
saffron ovary = assay: Tissue culture of saffron ovary in Linsmaier-Skoog medium with alanine; visual rating of stigma-like tissue (Example 4); assay type: cell-based; details: Ki 2 ppm, scale 0-10
Text: as §1, §2, §3, §4
The ovary was subjected to static culture at 25° C. in a dark room. Production of a stigma-like tissue was recognized in the cultures in about 4 weeks at the soonest. In 7 weeks, the stigma-like tissue grew and assumed a red color, indicating considerable production of the saffron pigment.
as §5, §6

style of saffron = assay: Tissue culture of saffron style with alanine; visual rating of stigma-like tissue (Example 6); assay type: cell-based; details: Ki 2 ppm, Linsmaier-Skoog medium, scale 0-10
Text: as §1, §2, §3, §4, §5, §6
The procedure of Example 4 was repeated except for replacing the overy with a style of saffron.

[2] = test system: corolla tube of a saffron; assay: Tissue culture of saffron corolla tube with alanine; visual rating of stigma-like tissue (Example 5); assay type: cell-based; details: alanine 0.01 g/l; Ki 2 ppm, NAA 0.1 ppm; Linsmaier-Skoog medium; scale 0-10
Text: as §1, §2, §3, §4, §5, §6
The procedure of Example 4 was repeated except for replacing the ovary with a corolla tube of a saffron.

C[C@H](N)C(=O)O (racemic) [Alanine, alanine]
Relative Color Density of Stigma-Like Tissue Containing Saffron Pigment (stigma of saffran; alanine 0.1 g/l, NAA 0.1 ppm): 6 | Relative Production of Stigma-Like Tissue Containing Saffron Pigment (stigma of saffran; alanine 0.1 g/l, NAA 0.1 ppm): 3 | Relative Color Density of Stigma-Like Tissue Containing Saffron Pigment (stigma of saffran; alanine 0.1 g/l, NAA 1.0 ppm): 8 | Relative Production of Stigma-Like Tissue Containing Saffron Pigment (stigma of saffran; alanine 0.1 g/l, NAA 1.0 ppm): 4 | Relative Color Density of Stigma-Like Tissue Containing Saffron Pigment (stigma of saffran; alanine 1.0 g/l, NAA 0.1 ppm): 8 | Relative Production of Stigma-Like Tissue Containing Saffron Pigment (stigma of saffran; alanine 1.0 g/l, NAA 0.1 ppm): 4 | Relative Color Density of Stigma-Like Tissue Containing Saffron Pigment (stigma of saffran; alanine 1.0 g/l, NAA 1.0 ppm): 8 | Relative Production of Stigma-Like Tissue Containing Saffron Pigment (stigma of saffran; alanine 1.0 g/l, NAA 1.0 ppm): 4 | Relative Color Density of Stigma-Like Tissue Containing Saffron Pigment (stigma of saffran; alanine 5.0 g/l, NAA 0.1 ppm): 7 | Relative Production of Stigma-Like Tissue Containing Saffron Pigment (stigma of saffran; alanine 5.0 g/l, NAA 0.1 ppm): 4 | Relative Color Density of Stigma-Like Tissue Containing Saffron Pigment (stigma of saffran; alanine 5.0 g/l, NAA 1.0 ppm): 7 | Relative Production of Stigma-Like Tissue Containing Saffron Pigment (stigma of saffran; alanine 5.0 g/l, NAA 1.0 ppm): 4 | effect of addition of alanine to the medium [1]: discharge of a red substance into the medium | Relative Color Density of Stigma-Like Tissue Containing Saffron Pigment (saffron ovary; alanine 0.01 g/l, NAA 0.1 ppm): 5 | Relative Production of Stigma-Like Tissue Containing Saffron Pigment (saffron ovary; alanine 0.01 g/l, NAA 0.1 ppm): 3 | Relative Color Density of Stigma-Like Tissue Containing Saffron Pigment (saffron ovary; alanine 0.01 g/l, NAA 1.0 ppm): 6 | Relative Production of Stigma-Like Tissue Containing Saffron Pigment (saffron ovary; alanine 0.01 g/l, NAA 1.0 ppm): 3 | Relative Color Density of Stigma-Like Tissue Containing Saffron Pigment (saffron ovary; alanine 0.1 g/l, NAA 0.1 ppm): 6 | Relative Production of Stigma-Like Tissue Containing Saffron Pigment (saffron ovary; alanine 0.1 g/l, NAA 0.1 ppm): 4 | Relative Color Density of Stigma-Like Tissue Containing Saffron Pigment (saffron ovary; alanine 0.1 g/l, NAA 1.0 ppm): 6 | Relative Production of Stigma-Like Tissue Containing Saffron Pigment (saffron ovary; alanine 0.1 g/l, NAA 1.0 ppm): 4 | Relative Color Density of Stigma-Like Tissue Containing Saffron Pigment (saffron ovary; alanine 1.0 g/l, NAA 0.1 ppm): 7 | Relative Production of Stigma-Like Tissue Containing Saffron Pigment (saffron ovary; alanine 1.0 g/l, NAA 0.1 ppm): 5 | Relative Color Density of Stigma-Like Tissue Containing Saffron Pigment (saffron ovary; alanine 1.0 g/l, NAA 1.0 ppm): 7 | Relative Production of Stigma-Like Tissue Containing Saffron Pigment (saffron ovary; alanine 1.0 g/l, NAA 1.0 ppm): 5 | Relative Color Density of Stigma-Like Tissue Containing Saffron Pigment (saffron ovary; alanine 5.0 g/l, NAA 0.1 ppm): 6 | Relative Production of Stigma-Like Tissue Containing Saffron Pigment (saffron ovary; alanine 5.0 g/l, NAA 0.1 ppm): 5 | Relative Color Density of Stigma-Like Tissue Containing Saffron Pigment (saffron ovary; alanine 5.0 g/l, NAA 1.0 ppm): 7 | Relative Production of Stigma-Like Tissue Containing Saffron Pigment (saffron ovary; alanine 5.0 g/l, NAA 1.0 ppm): 5 | Relative Density of Stigma-Like Tissue Containing Saffron Pigment (style of saffron; alanine 0.1 g/l, NAA 0.1 ppm): 6 | Relative Production of Stigma-Like Tissue Containing Saffron Pigment (style of saffron; alanine 0.1 g/l, NAA 0.1 ppm): 4 | Relative Density of Stigma-Like Tissue Containing Saffron Pigment (style of saffron; alanine 0.1 g/l, NAA 1.0 ppm): 7 | Relative Production of Stigma-Like Tissue Containing Saffron Pigment (style of saffron; alanine 0.1 g/l, NAA 1.0 ppm): 5 | Relative Density of Stigma-Like Tissue Containing Saffron Pigment (style of saffron; alanine 1.0 g/l, NAA 0.1 ppm): 7 | Relative Production of Stigma-Like Tissue Containing Saffron Pigment (style of saffron; alanine 1.0 g/l, NAA 0.1 ppm): 5 | Relative Density of Stigma-Like Tissue Containing Saffron Pigment (style of saffron; alanine 1.0 g/l, NAA 1.0 ppm): 7 | Relative Production of Stigma-Like Tissue Containing Saffron Pigment (style of saffron; alanine 1.0 g/l, NAA 1.0 ppm): 6 | Relative Density of Stigma-Like Tissue Containing Saffron Pigment (style of saffron; alanine 5.0 g/l, NAA 0.1 ppm): 7 | Relative Production of Stigma-Like Tissue Containing Saffron Pigment (style of saffron; alanine 5.0 g/l, NAA 0.1 ppm): 5 | Relative Density of Stigma-Like Tissue Containing Saffron Pigment (style of saffron; alanine 5.0 g/l, NAA 1.0 ppm): 8 | Relative Production of Stigma-Like Tissue Containing Saffron Pigment (style of saffron; alanine 5.0 g/l, NAA 1.0 ppm): 6 | Relative Color Density of Stigma-Like Tissue Containing Saffron Pigment [2]: 6 | Relative Production of Stigma-Like Tissue Containing Saffron Pigment [2]: 4
